How the values were obtained:
[1] = tested on: wild oat; assay: Test B pre/postemergence wild oat; type: in vivo, Avena fatua
In short: (§1)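 Test chemicals in a non-phytotoxic solvent mixture with surfactant were sprayed preemergence onto planted seeds and postemergence onto plants 2 to 18 cm tall (1- to 4-leaf stage). After twelve to sixteen days in a greenhouse, injury was visually rated against untreated controls from 0 (no effect) to 10 (complete control).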

[2] = tested on: soybean; assay: Test B pre/postemergence soybean; type: in vivo, Glycine max
In short: as §1

[3] = tested on: wheat; assay: Test B pre/postemergence wheat; type: in vivo, Triticum aestivum
In short: as §1

[4] = tested on: morningglory; assay: Test B pre/postemergence morningglory; type: in vivo, Ipomoea hederacea
In short: as §1

[5] = tested on: crabgrass; assay: Test B pre/postemergence crabgrass; type: in vivo, Digitaria sanguinalis
In short: as §1

[6] = tested on: duck salad; assay: Test B flood test duck salad; type: in vivo, Heteranthera limosa
In short: (§2)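 Flood test on plants grown to the 2-leaf stage; treated plants kept in greenhouse twelve to sixteen days, then visually rated against controls on a 0 (no effect) to 10 (complete control) scale.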

[7] = tested on: pigweed; assay: Test B pre/postemergence pigweed; type: in vivo, Amaranthus retroflexus
In short: as §1

[8] = tested on: rape; assay: Test B pre/postemergence rape; type: in vivo, Brassica napus
In short: as §1

[9] = tested on: smallflower flatsedge; assay: Test B flood test smallflower flatsedge; type: in vivo, Cyperus difformis
In short: as §2

[10] = tested on: rice; assay: Test B flood test rice; type: in vivo, Oryza sativa
In short: as §2

[11] = tested on: corn; assay: Test B pre/postemergence corn; type: in vivo, Zea mays
In short: as §1

[12] = tested on: giant foxtail; assay: Test B pre/postemergence giant foxtail; type: in vivo, Setaria faberii
In short: as §1

[13] = tested on: cocklebur; assay: Test B pre/postemergence cocklebur; type: in vivo, Xanthium strumarium
In short: as §1

[14] = tested on: sugar beet; assay: Test B pre/postemergence sugar beet; type: in vivo, Beta vulgaris
In short: as §1

[15] = tested on: velvetleaf; assay: Test B pre/postemergence velvetleaf; type: in vivo, Abutilon theophrasti
In short: as §1

[16] = tested on: bamyardgrass; assay: Test B flood test barnyardgrass; type: in vivo, Echinochloa crus-galli
In short: as §2

[17] = tested on: purple nutsedge; assay: Test B pre/postemergence purple nutsedge; type: in vivo, Cyperus rotundus
In short: as §1

[18] = tested on: blackgrass; assay: Test B pre/postemergence blackgrass; type: in vivo, Alopecurus myosuroides
In short: as §1

[19] = tested on: surinam grass; assay: Test B pre/postemergence surinam grass; type: in vivo, Brachiaria decumbens
In short: as §1

[20] = Postemergence, Rate 125 g/ha, scale of 0 to 10 where 0 is no effect and 10 is complete control
[21] = Postemergence, Rate 250 g/ha, scale of 0 to 10, 0 is no effect, 10 is complete control
[22] = Preemergence, Rate 62 g/ha, scale 0 to 10 (0 no effect, 10 complete control)
[23] = Preemergence, Rate 125 g/ha, scale of 0 to 10 where 0 is no effect and 10 is complete control
[24] = Preemergence, Rate 500 g/ha, scale of 0 to 10 where 0 is no effect and 10 is complete control
[25] = Postemergence, Rate 500 g/ha, scale of 0 to 10 where 0 is no effect and 10 is complete control
[26] = Postemergence, Rate 62 g/ha, scale of 0 to 10, 0 is no effect, 10 is complete control
[27] = Rate 62 g/ha, flood test species, Pre-emergence, visual evaluation after twelve to sixteen days
[28] = Rate 125 g/ha, under heading Pre-emergence, flood test species, visual evaluation after twelve to sixteen days
[29] = Rate 500 g/ha, Pre-emergence section of Table B, 0 to 10 scale (0 no effect, 10 complete control)

## CCc1nc(C)c(C(C)n2c(=O)on(C(=O)N(c3ccc(F)cc3F)C(C)C)c2=O)s1 (stereo not shown) [Compound 589]
[1]; [20]
  Plant response rating, Wild oats: 0
[1]; [21]
  Wild oats plant response rating: 0
[1]; [22]
  Wild oats plant response rating: 0
[1]; [23]
  Wild oats plant response rating: 0
[1]; [24]
  Wild oats plant response rating: 0
[2]; [20]
  Plant response rating, Soybean: 3
[2]; [21]
  Soybean plant response rating: 3
[2]; [25]
  Plant response rating, Soybean: 3
[2]; [22]
  Soybean plant response rating: 0
[2]; [23]
  Soybean plant response rating: 0
[2]; [24]
  Soybean plant response rating: 0
[3]; [20]
  Plant response rating, Wheat: 0
[3]; [21]
  Wheat plant response rating: 0
[3]; [25]
  Plant response rating, Wheat: 0
[3]; [22]
  Wheat plant response rating: 0
[3]; [23]
  Wheat plant response rating: 0
[3]; [24]
  Wheat plant response rating: 0
[4]; [26]
  Morningglory plant response rating: 3
[4]; [20]
  Plant response rating, Morningglory: 3
[4]; [21]
  Morningglory plant response rating: 5
[4]; [25]
  Plant response rating, Morningglory: 6
[4]; [22]
  Morningglory plant response rating: 0
[4]; [23]
  Morningglory plant response rating: 0
[4]; [24]
  Morningglory plant response rating: 0
[5]; [26]
  Crabgrass plant response rating: 0
[5]; [20]
  Plant response rating, Crabgrass: 0
[5]; [21]
  Crabgrass plant response rating: 1
[5]; [25]
  Plant response rating, Crabgrass: 3
[5]; [22]
  Crabgrass plant response rating: 0
[5]; [23]
  Crabgrass plant response rating: 1
[5]; [24]
  Crabgrass plant response rating: 9
[6]; [27]
  Plant response rating, Ducksalad (0 to 10 scale, 0 is no effect, 10 is complete control): 0
[6]; [28]
  Ducksalad plant response rating (0 to 10 scale, 0 is no effect, 10 is complete control): 0
[6]; [29]
  Ducksalad plant response rating: 0
[7]; [20]
  Plant response rating, Redroot pigweed: 0
[7]; [21]
  Redroot pigweed plant response rating: 2
[7]; [25]
  Plant response rating, Redroot pigweed: 2
[7]; [22]
  Redroot pigweed plant response rating: 0
[7]; [23]
  Redroot pigweed plant response rating: 0
[7]; [24]
  Redroot pigweed plant response rating: 0
[8]; [26]
  Rape plant response rating: 0
[8]; [20]
  Plant response rating, Rape: 0
[8]; [21]
  Rape plant response rating: 0
[8]; [25]
  Plant response rating, Rape: 2
[8]; [22]
  Rape plant response rating: 0
[8]; [23]
  Rape plant response rating: 0
[8]; [24]
  Rape plant response rating: 0
[9]; [27]
  Plant response rating, S. Flatsedge (0 to 10 scale, 0 is no effect, 10 is complete control): 0
[9]; [28]
  S. Flatsedge plant response rating (0 to 10 scale, 0 is no effect, 10 is complete control): 0
[9]; [29]
  S. Flatsedge plant response rating: 0
[10]; [27]
  Plant response rating, Rice (0 to 10 scale, 0 is no effect, 10 is complete control): 0
[10]; [28]
  Rice plant response rating (0 to 10 scale, 0 is no effect, 10 is complete control): 0
[10]; [29]
  Rice plant response rating: 0
[11]; [26]
  Corn plant response rating: 0
[11]; [20]
  Plant response rating, Corn: 0
[11]; [21]
  Corn plant response rating: 0
[11]; [25]
  Plant response rating, Corn: 0
[11]; [22]
  Corn plant response rating: 0
[11]; [23]
  Corn plant response rating: 0
[11]; Preemergence, Rate 250 g/ha
  Corn plant response rating (0 to 10 scale): 0
[11]; [24]
  Corn plant response rating: 0
[12]; [26]
  Giant foxtail plant response rating: 0
[12]; [20]
  Plant response rating, Giant foxtail: 0
[12]; [21]
  Giant foxtail plant response rating: 0
[12]; [25]
  Plant response rating, Giant foxtail: 3
[12]; [22]
  Giant foxtail plant response rating: 3
[12]; [23]
  Giant foxtail plant response rating: 9
[12]; [24]
  Giant foxtail plant response rating: 10
[13]; [26]
  Cocklebur plant response rating: 0
[13]; [20]
  Plant response rating, Cocklebur: 0
[13]; [21]
  Cocklebur plant response rating: 0
[13]; [25]
  Plant response rating, Cocklebur: 0
[13]; [22]
  Cocklebur plant response rating: 0
[13]; [23]
  Cocklebur plant response rating: 0
[13]; Preemergence, Rate 250 g/ha
  Cocklebur plant response rating (0 to 10 scale): 0
[13]; [24]
  Cocklebur plant response rating: 0
[14]; [20]
  Plant response rating, Sugarbeets: 0
[14]; [21]
  Sugarbeets plant response rating: 0
[14]; [25]
  Plant response rating, Sugarbeets: 0
[14]; [22]
  Sugarbeets plant response rating: 0
[14]; [23]
  Sugarbeets plant response rating: 0
[14]; [24]
  Sugarbeets plant response rating: 0
[15]; [20]
  Plant response rating, Velvetleaf: 2
[15]; [21]
  Velvetleaf plant response rating: 5
[15]; [25]
  Plant response rating, Velvetleaf: 5
[15]; [22]
  Velvetleaf plant response rating: 0
[15]; [23]
  Velvetleaf plant response rating: 0
[15]; [24]
  Velvetleaf plant response rating: 0
[16]; [27]
  Plant response rating, Barnyardgrass (0 to 10 scale, 0 is no effect, 10 is complete control): 0
[16]; [28]
  Barnyardgrass plant response rating (0 to 10 scale, 0 is no effect, 10 is complete control): 0
[16]; [29]
  Barnyardgrass plant response rating: 0
[17]; [26]
  Nutsedge plant response rating: 0
[17]; [20]
  Plant response rating, Nutsedge: 0
[17]; [22]
  Nutsedge plant response rating: 0
[17]; [23]
  Nutsedge plant response rating: 0
[17]; [24]
  Nutsedge plant response rating: 9
[18]; [26]
  Blackgrass plant response rating: 0
[18]; [20]
  Plant response rating, Blackgrass: 0
[18]; [21]
  Blackgrass plant response rating: 2
[18]; [25]
  Plant response rating, Blackgrass: 3
[18]; [22]
  Blackgrass plant response rating: 0
[18]; [23]
  Blackgrass plant response rating: 0
[18]; Preemergence, Rate 250 g/ha
  Blackgrass plant response rating (0 to 10 scale): 0
[18]; [24]
  Blackgrass plant response rating: 0
[19]; [26]
  B. signalgrass plant response rating: 0
[19]; [20]
  Plant response rating, B. signalgrass: 0
[19]; [21]
  B. signalgrass plant response rating: 0
[19]; [25]
  Plant response rating, B. signalgrass: 3
[19]; [22]
  B. signalgrass plant response rating: 0
[19]; [23]
  B. signalgrass plant response rating: 0
[19]; Preemergence, Rate 250 g/ha
  B. signalgrass plant response rating (0 to 10 scale, 0 is no effect, 10 is complete control): 0
[19]; [24]
  B. signalgrass plant response rating: 0
